Measured values from PubChem BioAssay (NCI).
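Step 1: Grow cells in 96-well plates. Step 2: Expose to compound for 48 hours at 5 concentrations. Step 3: Interpolate endpoints linearly; if unreached, use highest concentration. GI50 = concentration required for 50% inhibition of growth. TGI: concentration producing complete growth inhibition.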

Experiments:
Test in all cases: NCI tumour cell line growth inhibition, 48 h
786-0 renal = system: 786-0 renal
A498 renal = system: A498 renal
A549 NSCLC = system: A549 NSCLC
ACHN renal = system: ACHN renal
BT-549 breast = system: BT-549 breast
CAKI-1 renal = system: CAKI-1 renal
CCRF-CEM leukemia = system: CCRF-CEM leukemia
COLO 205 colon = system: COLO 205 colon
DU-145 prostate = system: DU-145 prostate
HCC-2998 colon = system: HCC-2998 colon
HCT-116 colon = system: HCT-116 colon
HCT-15 colon = system: HCT-15 colon
HL-60(TB) leukemia = system: HL-60(TB) leukemia
HOP-62 NSCLC = system: HOP-62 NSCLC
HOP-92 NSCLC = system: HOP-92 NSCLC
HT29 colon = system: HT29 colon
IGROV1 ovarian = system: IGROV1 ovarian
K-562 leukemia = system: K-562 leukemia
KM12 colon = system: KM12 colon
LOX IMVI melanoma = system: LOX IMVI melanoma
M14 melanoma = system: M14 melanoma
MALME-3M melanoma = system: MALME-3M melanoma
MCF7 breast = system: MCF7 breast
MDA-MB-231 breast = system: MDA-MB-231 breast
MDA-MB-435 = system: MDA-MB-435
MOLT-4 leukemia = system: MOLT-4 leukemia
NCI-H226 lung = system: NCI-H226 lung
NCI-H23 lung = system: NCI-H23 lung
NCI-H460 lung = system: NCI-H460 lung
NCI-H522 lung = system: NCI-H522 lung
NCI/ADR-RES ovarian = system: NCI/ADR-RES ovarian
OVCAR-3 ovarian = system: OVCAR-3 ovarian
OVCAR-4 ovarian = system: OVCAR-4 ovarian
OVCAR-5 ovarian = system: OVCAR-5 ovarian
OVCAR-8 ovarian = system: OVCAR-8 ovarian
PC-3 prostate = system: PC-3 prostate
RPMI-8226 leukemia = system: RPMI-8226 leukemia
RXF 393 renal = system: RXF 393 renal
SF-268 CNS = system: SF-268 CNS
SF-295 CNS = system: SF-295 CNS
SF-539 CNS = system: SF-539 CNS
SK-MEL-2 melanoma = system: SK-MEL-2 melanoma
SK-MEL-28 melanoma = system: SK-MEL-28 melanoma
SK-MEL-5 melanoma = system: SK-MEL-5 melanoma
SK-OV-3 ovarian = system: SK-OV-3 ovarian
SN12C renal = system: SN12C renal
SNB-19 CNS = system: SNB-19 CNS
SNB-75 CNS = system: SNB-75 CNS
SR leukemia = system: SR leukemia
SW-620 colon = system: SW-620 colon
T-47D breast = system: T-47D breast
TK-10 renal = system: TK-10 renal
U251 CNS = system: U251 CNS
UACC-62 melanoma = system: UACC-62 melanoma
UO-31 renal = system: UO-31 renal

`C=CC(C)c1cccc(C=O)c1O` (stereo not given) gave a GI50 (786-0 renal) of 97.1 µM, a TGI (786-0 renal) greater than 100 µM and a GI50 (A498 renal) greater than 100 µM. It also gave a TGI (A498 renal) greater than 100 µM, a GI50 (A549 NSCLC) greater than 100 µM and a TGI (A549 NSCLC) greater than 100 µM. The GI50 (ACHN renal) was 80.9 µM, the TGI (ACHN renal) was greater than 100 µM and the GI50 (BT-549 breast) was 23.8 µM. For the same molecule, the TGI (BT-549 breast) was greater than 100 µM, the GI50 (CAKI-1 renal) was 45 µM and the TGI (CAKI-1 renal) was greater than 100 µM. The GI50 (CCRF-CEM leukemia) was 17.4 µM, the TGI (CCRF-CEM leukemia) was greater than 100 µM and the GI50 (COLO 205 colon) was greater than 100 µM. For the same molecule, the TGI (COLO 205 colon) was greater than 100 µM, the GI50 (DU-145 prostate) was 94.9 µM and the TGI (DU-145 prostate) was greater than 100 µM. For the same molecule, the GI50 (HCC-2998 colon) was greater than 100 µM, the TGI (HCC-2998 colon) was greater than 100 µM and the GI50 (HCT-116 colon) was 18.1 µM. The TGI (HCT-116 colon) was greater than 100 µM, the GI50 (HCT-15 colon) was 22 µM and the TGI (HCT-15 colon) was greater than 100 µM. The GI50 (HL-60(TB) leukemia) was 19.9 µM, the TGI (HL-60(TB) leukemia) was greater than 100 µM and the GI50 (HOP-62 NSCLC) was 49.3 µM. The TGI (HOP-62 NSCLC) was greater than 100 µM, the GI50 (HOP-92 NSCLC) was 4.93 µM and the TGI (HOP-92 NSCLC) was 70.5 µM. The GI50 (HT29 colon) was 37 µM, the TGI (HT29 colon) was greater than 100 µM and the GI50 (IGROV1 ovarian) was 37 µM. The TGI (IGROV1 ovarian) was greater than 100 µM, the GI50 (K-562 leukemia) was 4.08 µM and the TGI (K-562 leukemia) was greater than 100 µM. The GI50 (KM12 colon) was 91.6 µM, the TGI (KM12 colon) was greater than 100 µM and the GI50 (LOX IMVI melanoma) was 30.7 µM. The TGI (LOX IMVI melanoma) was greater than 100 µM, the GI50 (M14 melanoma) was 27.3 µM and the TGI (M14 melanoma) was greater than 100 µM. It also gave a GI50 (MALME-3M melanoma) greater than 100 µM, a TGI (MALME-3M melanoma) greater than 100 µM and a GI50 (MCF7 breast) of 15.8 µM. The TGI (MCF7 breast) was greater than 100 µM, the GI50 (MDA-MB-231 breast) was 27.3 µM and the TGI (MDA-MB-231 breast) was greater than 100 µM. For the same molecule, the GI50 (MDA-MB-435) was 4.47 µM, the TGI (MDA-MB-435) was 41.7 µM and the GI50 (MOLT-4 leukemia) was 8.45 µM. It also gave a TGI (MOLT-4 leukemia) greater than 100 µM, a GI50 (NCI-H226 lung) greater than 100 µM and a TGI (NCI-H226 lung) greater than 100 µM. The GI50 (NCI-H23 lung) was greater than 100 µM, the TGI (NCI-H23 lung) was greater than 100 µM and the GI50 (NCI-H460 lung) was greater than 100 µM. The TGI (NCI-H460 lung) was greater than 100 µM, the GI50 (NCI-H522 lung) was greater than 100 µM and the TGI (NCI-H522 lung) was greater than 100 µM. It also gave a GI50 (NCI/ADR-RES ovarian) of 19.6 µM, a TGI (NCI/ADR-RES ovarian) greater than 100 µM and a GI50 (OVCAR-3 ovarian) of 58.3 µM. It also gave a TGI (OVCAR-3 ovarian) greater than 100 µM, a GI50 (OVCAR-4 ovarian) of 75.4 µM and a TGI (OVCAR-4 ovarian) greater than 100 µM. It also gave a GI50 (OVCAR-5 ovarian) greater than 100 µM, a TGI (OVCAR-5 ovarian) greater than 100 µM and a GI50 (OVCAR-8 ovarian) of 73.6 µM. The TGI (OVCAR-8 ovarian) was greater than 100 µM, the GI50 (PC-3 prostate) was 26.7 µM and the TGI (PC-3 prostate) was greater than 100 µM. The GI50 (RPMI-8226 leukemia) was 19.7 µM, the TGI (RPMI-8226 leukemia) was greater than 100 µM and the GI50 (RXF 393 renal) was 37 µM. For the same molecule, the TGI (RXF 393 renal) was greater than 100 µM, the GI50 (SF-268 CNS) was 35.8 µM and the TGI (SF-268 CNS) was greater than 100 µM. For the same molecule, the GI50 (SF-295 CNS) was greater than 100 µM, the TGI (SF-295 CNS) was greater than 100 µM and the GI50 (SF-539 CNS) was 45 µM. For the same molecule, the TGI (SF-539 CNS) was greater than 100 µM, the GI50 (SK-MEL-2 melanoma) was 54 µM and the TGI (SK-MEL-2 melanoma) was greater than 100 µM. The GI50 (SK-MEL-28 melanoma) was greater than 100 µM, the TGI (SK-MEL-28 melanoma) was greater than 100 µM and the GI50 (SK-MEL-5 melanoma) was 49.2 µM. It also gave a TGI (SK-MEL-5 melanoma) greater than 100 µM, a GI50 (SK-OV-3 ovarian) greater than 100 µM and a TGI (SK-OV-3 ovarian) greater than 100 µM. For the same molecule, the GI50 (SN12C renal) was 53.7 µM, the TGI (SN12C renal) was greater than 100 µM and the GI50 (SNB-19 CNS) was 74.2 µM. The TGI (SNB-19 CNS) was greater than 100 µM, the GI50 (SNB-75 CNS) was 35.1 µM and the TGI (SNB-75 CNS) was greater than 100 µM. For the same molecule, the GI50 (SR leukemia) was 3.82 µM, the TGI (SR leukemia) was greater than 100 µM and the GI50 (SW-620 colon) was 27.2 µM. It also gave a TGI (SW-620 colon) greater than 100 µM, a GI50 (T-47D breast) of 28.8 µM and a TGI (T-47D breast) greater than 100 µM. The GI50 (TK-10 renal) was 38.8 µM, the TGI (TK-10 renal) was greater than 100 µM and the GI50 (U251 CNS) was 42.6 µM. It also gave a TGI (U251 CNS) greater than 100 µM, a GI50 (UACC-62 melanoma) of 44.6 µM and a TGI (UACC-62 melanoma) greater than 100 µM. It also gave a GI50 (UO-31 renal) of 57.9 µM and a TGI (UO-31 renal) greater than 100 µM.
